Results from patent US6841519B1, “Isoxazoline derivatives and herbicides containing the same as the active ingredient” (Kumiai Chemical Industry Co., Ltd., priority 1999, dated 2005).

Legend:
Assay type in all cases: in vivo
[1] = system: Echinochloa oryzicola Vasing. (Eo); assay: Test for herbicidal effect by paddy field soil treatment (Test Example 1); settings: application amount (active ingredient) 100 g/10 a, examined at the 21st day from the treatment, index per Table 40
In short: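 Scored on a standard scale at day 21 in the greenhouse: herbicidal effect of wettable powder applied to flooded water (3 cm depth) at 100 g a.i./10 ares, one day after sowing Eo into puddled paddy soil.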

[2] = system: Echinochloa crus-galli (L.) Beauv. var. crusgall (Ec); assay: Test for herbicidal effect by upland field soil treatment (Test Example 2), Ec
In short: (§1)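 Pre-emergence soil treatment: wettable powder diluted in water and sprayed on soil just sown with Ec and Se seeds, delivering 100 g active ingredient per 10 ares in 100 liters per 10 ares. Herbicidal effect was rated against a fixed scale 21 days later, after greenhouse growth.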

[3] = system: Setaria viridis (L.) Beauv. (Se); assay: Test for herbicidal effect by upland field soil treatment (Test Example 2), Se
In short: as §1

[4] = system: Echinochloa crus-galli (L.) Beauv. var. crusgalli (Ec); assay: Test for herbicidal effect by upland foliage treatment (Test Example 3); settings: 100 g/10 a active ingredient, examined at 14th day
In short: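 Scored 14 days post-spray against a graded standard: greenhouse-grown Ec, 2 weeks old in upland soil, received whole-foliage application of diluted wettable powder (100 g active ingredient per 10 ares, spray volume 100 L per 10 ares).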

[5] = application amount (active ingredient) 100 g/10 a, examined at the 21st day from the treatment, index per Table 40
[6] = 100 g/10 a active ingredient, examined at 21st day

For `CC1(C)CC(S(=O)(=O)Cc2ccccc2S(C)(=O)=O)=NO1` [Compound 1-106], the “Herbicidal effect to Eo” value [1] was 5 (A herbicidal effect or phytotoxicity of 90% or more), the “Herbicidal effect to Ec” value [2, 5] was 5 (A herbicidal effect or phytotoxicity of 90% or more) and the “Herbicidal effect to Se” value [3, 5] was 5 (A herbicidal effect or phytotoxicity of 90% or more). The “Herbicidal effect to Ec” value [4] was 4 (A herbicidal effect or phytotoxicity of 70% to less than 90%).
`Cc1ccc([N+](=O)[O-])c(CS(=O)(=O)C2=NOC(C)(C)C2)c1` [Compound 1-540] was tested, and the “Herbicidal effect to Eo” value [1] was 5 (A herbicidal effect or phytotoxicity of 90% or more), the “Herbicidal effect to Ec” value [2, 6] was 5 (A herbicidal effect or phytotoxicity of 90% or more) and the “Herbicidal effect to Se” value [3, 6] was 5 (A herbicidal effect or phytotoxicity of 90% or more). For the same compound, the “Herbicidal effect to Ec” value [4] was 5 (A herbicidal effect or phytotoxicity of 90% or more).
In the case of `CC(C)OC(=O)c1ccccc1CS(=O)(=O)C1=NOC(C)(C)C1` [Compound 1-595], the “Herbicidal effect to Eo” value [1] is reported as 5 (A herbicidal effect or phytotoxicity of 90% or more), the “Herbicidal effect to Ec” value [2, 6] is reported as 5 (A herbicidal effect or phytotoxicity of 90% or more) and the “Herbicidal effect to Se” value [3, 6] is reported as 5 (A herbicidal effect or phytotoxicity of 90% or more). The “Herbicidal effect to Ec” value [4] was 4 (A herbicidal effect or phytotoxicity of 70% to less than 90%).
In the case of `COc1cccc(C)c1CS(=O)(=O)C1=NOC(C)(C)C1` [Compound 1-583], the “Herbicidal effect to Eo” value [1] is reported as 5 (A herbicidal effect or phytotoxicity of 90% or more), the “Herbicidal effect to Ec” value [2, 6] is reported as 5 (A herbicidal effect or phytotoxicity of 90% or more) and the “Herbicidal effect to Se” value [3, 6] is reported as 5 (A herbicidal effect or phytotoxicity of 90% or more). For the same compound, the “Herbicidal effect to Ec” value [4] was 4 (A herbicidal effect or phytotoxicity of 70% to less than 90%).
For `CC1(C)CC(S(=O)(=O)Cc2cccc(C(F)(F)F)c2F)=NO1` [Compound 1-515], the “Herbicidal effect to Eo” value [1] was 5 (A herbicidal effect or phytotoxicity of 90% or more), the “Herbicidal effect to Ec” value [2, 6] was 5 (A herbicidal effect or phytotoxicity of 90% or more) and the “Herbicidal effect to Se” value [3, 6] was 5 (A herbicidal effect or phytotoxicity of 90% or more). The “Herbicidal effect to Ec” value [4] was 5 (A herbicidal effect or phytotoxicity of 90% or more).
In the case of `Cc1ccccc1CS(=O)(=O)C1=NOC(C)(C)C1` [Compound 1-5], the “Herbicidal effect to Eo” value [1] is reported as 5 (A herbicidal effect or phytotoxicity of 90% or more), the “Herbicidal effect to Ec” value [2, 5] is reported as 5 (A herbicidal effect or phytotoxicity of 90% or more) and the “Herbicidal effect to Se” value [3, 5] is reported as 5 (A herbicidal effect or phytotoxicity of 90% or more). The “Herbicidal effect to Ec” value [4] was 5 (A herbicidal effect or phytotoxicity of 90% or more).
For `CCOC(=O)c1ccccc1CS(=O)(=O)C1=NOC(C)(C)C1` [Compound 1-593], the “Herbicidal effect to Eo” value [1] was 5 (A herbicidal effect or phytotoxicity of 90% or more), the “Herbicidal effect to Ec” value [2, 6] was 5 (A herbicidal effect or phytotoxicity of 90% or more) and the “Herbicidal effect to Se” value [3, 6] was 4 (A herbicidal effect or phytotoxicity of 70% to less than 90%). The “Herbicidal effect to Ec” value [4] was 4 (A herbicidal effect or phytotoxicity of 70% to less than 90%).
In the case of `CCC1(C)CC([S+]([O-])Cc2c(F)cccc2F)=NO1` (centres unmarked) [Compound 1-199, 5-ethyl-3-(2,6-difluorobenzylsulfinyl)-5-methyl-2-isoxazoline], the “Herbicidal effect to Eo” value [1] is reported as 5 (A herbicidal effect or phytotoxicity of 90% or more), the “Herbicidal effect to Ec” value [2, 5] is reported as 5 (A herbicidal effect or phytotoxicity of 90% or more) and the “Herbicidal effect to Se” value [3, 5] is reported as 5 (A herbicidal effect or phytotoxicity of 90% or more). For the same compound, the “Herbicidal effect to Ec” value [4] was 4 (A herbicidal effect or phytotoxicity of 70% to less than 90%).
`CCOc1cccc(C(F)(F)F)c1CS(=O)(=O)C1=NOC(C)(C)C1` [Compound 1-585] was tested, and the “Herbicidal effect to Eo” value [1] was 5 (A herbicidal effect or phytotoxicity of 90% or more), the “Herbicidal effect to Ec” value [2, 6] was 5 (A herbicidal effect or phytotoxicity of 90% or more) and the “Herbicidal effect to Se” value [3, 6] was 5 (A herbicidal effect or phytotoxicity of 90% or more). For the same compound, the “Herbicidal effect to Ec” value [4] was 5 (A herbicidal effect or phytotoxicity of 90% or more).
For `Cc1cccc(CS(=O)(=O)C2=NOC(C)(C)C2)c1C` [Compound 1-522], the “Herbicidal effect to Eo” value [1] was 5 (A herbicidal effect or phytotoxicity of 90% or more), the “Herbicidal effect to Ec” value [2, 6] was 5 (A herbicidal effect or phytotoxicity of 90% or more) and the “Herbicidal effect to Se” value [3, 6] was 5 (A herbicidal effect or phytotoxicity of 90% or more). The “Herbicidal effect to Ec” value [4] was 5 (A herbicidal effect or phytotoxicity of 90% or more).
With `CC1(C)CC(S(=O)(=O)Cc2cc(F)c(F)cc2F)=NO1` [Compound 1-510] the “Herbicidal effect to Eo” value [1] was 5 (A herbicidal effect or phytotoxicity of 90% or more), the “Herbicidal effect to Ec” value [2, 6] was 5 (A herbicidal effect or phytotoxicity of 90% or more) and the “Herbicidal effect to Se” value [3, 6] was 5 (A herbicidal effect or phytotoxicity of 90% or more). For the same compound, the “Herbicidal effect to Ec” value [4] was 4 (A herbicidal effect or phytotoxicity of 70% to less than 90%).
With `CCC1(C)CC(S(=O)(=O)Cc2c(F)cccc2F)=NO1` (centres unmarked) [Compound 1-200, 5-ethyl-3-(2,6-difluorobenzylsulfonyl)-5-methyl-2-isoxazoline] the “Herbicidal effect to Eo” value [1] was 5 (A herbicidal effect or phytotoxicity of 90% or more), the “Herbicidal effect to Ec” value [2, 5] was 5 (A herbicidal effect or phytotoxicity of 90% or more) and the “Herbicidal effect to Se” value [3, 5] was 5 (A herbicidal effect or phytotoxicity of 90% or more). The “Herbicidal effect to Ec” value [4] was 4 (A herbicidal effect or phytotoxicity of 70% to less than 90%).
In the case of `CCOc1ccccc1CS(=O)(=O)C1=NOC(C)(C)C1` [Compound 1-43], the “Herbicidal effect to Eo” value [1] is reported as 5 (A herbicidal effect or phytotoxicity of 90% or more), the “Herbicidal effect to Ec” value [2, 5] is reported as 5 (A herbicidal effect or phytotoxicity of 90% or more) and the “Herbicidal effect to Se” value [3, 5] is reported as 5 (A herbicidal effect or phytotoxicity of 90% or more). For the same compound, the “Herbicidal effect to Ec” value [4] was 5 (A herbicidal effect or phytotoxicity of 90% or more).
In the case of `CCCc1cccc(F)c1CS(=O)(=O)C1=NOC(C)(C)C1` [Compound 1-553], the “Herbicidal effect to Eo” value [1] is reported as 5 (A herbicidal effect or phytotoxicity of 90% or more), the “Herbicidal effect to Ec” value [2, 6] is reported as 5 (A herbicidal effect or phytotoxicity of 90% or more) and the “Herbicidal effect to Se” value [3, 6] is reported as 5 (A herbicidal effect or phytotoxicity of 90% or more). The “Herbicidal effect to Ec” value [4] was 5 (A herbicidal effect or phytotoxicity of 90% or more).
`CCCCOc1ccccc1CS(=O)(=O)C1=NOC(C)(C)C1` [Compound 1-568] was tested, and the “Herbicidal effect to Eo” value [1] was 5 (A herbicidal effect or phytotoxicity of 90% or more), the “Herbicidal effect to Ec” value [2, 6] was 5 (A herbicidal effect or phytotoxicity of 90% or more) and the “Herbicidal effect to Se” value [3, 6] was 5 (A herbicidal effect or phytotoxicity of 90% or more). The “Herbicidal effect to Ec” value [4] was 5 (A herbicidal effect or phytotoxicity of 90% or more).
With `CC(C)Oc1cccc(F)c1CS(=O)(=O)C1=NOC(C)(C)C1` [Compound 1-570] the “Herbicidal effect to Eo” value [1] was 5 (A herbicidal effect or phytotoxicity of 90% or more), the “Herbicidal effect to Ec” value [2, 6] was 5 (A herbicidal effect or phytotoxicity of 90% or more) and the “Herbicidal effect to Se” value [3, 6] was 5 (A herbicidal effect or phytotoxicity of 90% or more). For the same compound, the “Herbicidal effect to Ec” value [4] was 5 (A herbicidal effect or phytotoxicity of 90% or more).
`CC1(C)CC(S(=O)(=O)Cc2ccccc2OC(F)F)=NO1` [Compound 1-55] was tested, and the “Herbicidal effect to Eo” value [1] was 5 (A herbicidal effect or phytotoxicity of 90% or more), the “Herbicidal effect to Ec” value [2, 5] was 5 (A herbicidal effect or phytotoxicity of 90% or more) and the “Herbicidal effect to Se” value [3, 5] was 5 (A herbicidal effect or phytotoxicity of 90% or more). For the same compound, the “Herbicidal effect to Ec” value [4] was 4 (A herbicidal effect or phytotoxicity of 70% to less than 90%).
`CC1(C)CC(S(=O)(=O)Cc2ccc(Br)cc2F)=NO1` [Compound 1-516] was tested, and the “Herbicidal effect to Eo” value [1] was 5 (A herbicidal effect or phytotoxicity of 90% or more), the “Herbicidal effect to Ec” value [2, 6] was 5 (A herbicidal effect or phytotoxicity of 90% or more) and the “Herbicidal effect to Se” value [3, 6] was 5 (A herbicidal effect or phytotoxicity of 90% or more). The “Herbicidal effect to Ec” value [4] was 5 (A herbicidal effect or phytotoxicity of 90% or more).
In the case of `CC1(C)CC(S(=O)(=O)Cc2ccc(F)c(F)c2F)=NO1` [Compound 1-507], the “Herbicidal effect to Eo” value [1] is reported as 5 (A herbicidal effect or phytotoxicity of 90% or more), the “Herbicidal effect to Ec” value [2, 6] is reported as 5 (A herbicidal effect or phytotoxicity of 90% or more) and the “Herbicidal effect to Se” value [3, 6] is reported as 5 (A herbicidal effect or phytotoxicity of 90% or more). The “Herbicidal effect to Ec” value [4] was 4 (A herbicidal effect or phytotoxicity of 70% to less than 90%).
For `O=S(=O)(Cc1c(F)cccc1F)C1=NOC2(CC2)C1` [Compound 1-380], the “Herbicidal effect to Eo” value [1] was 5 (A herbicidal effect or phytotoxicity of 90% or more), the “Herbicidal effect to Ec” value [2, 5] was 5 (A herbicidal effect or phytotoxicity of 90% or more) and the “Herbicidal effect to Se” value [3, 5] was 4 (A herbicidal effect or phytotoxicity of 70% to less than 90%). For the same compound, the “Herbicidal effect to Ec” value [4] was 4 (A herbicidal effect or phytotoxicity of 70% to less than 90%).
For `CC1(C)CC(S(=O)(=O)Cc2cccc(OC(F)(F)F)c2)=NO1` [Compound 1-59], the “Herbicidal effect to Eo” value [1] was 5 (A herbicidal effect or phytotoxicity of 90% or more), the “Herbicidal effect to Ec” value [2, 5] was 5 (A herbicidal effect or phytotoxicity of 90% or more) and the “Herbicidal effect to Se” value [3, 5] was 5 (A herbicidal effect or phytotoxicity of 90% or more). The “Herbicidal effect to Ec” value [4] was 5 (A herbicidal effect or phytotoxicity of 90% or more).
For `CC1(C)CC(S(=O)(=O)Cc2cc(F)cc(C(F)(F)F)c2)=NO1` [Compound 1-542], the “Herbicidal effect to Eo” value [1] was 5 (A herbicidal effect or phytotoxicity of 90% or more), the “Herbicidal effect to Ec” value [2, 6] was 5 (A herbicidal effect or phytotoxicity of 90% or more) and the “Herbicidal effect to Se” value [3, 6] was 5 (A herbicidal effect or phytotoxicity of 90% or more). For the same compound, the “Herbicidal effect to Ec” value [4] was 4 (A herbicidal effect or phytotoxicity of 70% to less than 90%).
`CC1C(S(=O)(=O)Cc2c(F)cccc2F)=NOC1(C)C` (centres unmarked) [Compound 1-495] was tested, and the “Herbicidal effect to Eo” value [1] was 5 (A herbicidal effect or phytotoxicity of 90% or more), the “Herbicidal effect to Ec” value [2, 5] was 5 (A herbicidal effect or phytotoxicity of 90% or more) and the “Herbicidal effect to Se” value [3, 5] was 5 (A herbicidal effect or phytotoxicity of 90% or more). The “Herbicidal effect to Ec” value [4] was 5 (A herbicidal effect or phytotoxicity of 90% or more).
